Experimental data reported in paper PMC11844072, “Novel 5,6-dichlorobenzimidazole derivatives as dual BRAFWT and BRAFV600E inhibitors: design, synthesis, anti-cancer activity and molecular dynamics simulations” (BMC Chemistry, 2025).

Key:
[1] = biological target: T1, BRAFWT (Homo sapiens, UniProt P15056); test: BRAFWT kinase assay kit (Kinase-Glo Max luminescence); assay type: biochemical; details: mean of two independent experiments ± SD; for inhibition at 10 µM / % inhibition: BRAFwt, 10 µM
T1 construct: purchased BPS Biosciences 78316
T1 sequence (P15056 whole entry): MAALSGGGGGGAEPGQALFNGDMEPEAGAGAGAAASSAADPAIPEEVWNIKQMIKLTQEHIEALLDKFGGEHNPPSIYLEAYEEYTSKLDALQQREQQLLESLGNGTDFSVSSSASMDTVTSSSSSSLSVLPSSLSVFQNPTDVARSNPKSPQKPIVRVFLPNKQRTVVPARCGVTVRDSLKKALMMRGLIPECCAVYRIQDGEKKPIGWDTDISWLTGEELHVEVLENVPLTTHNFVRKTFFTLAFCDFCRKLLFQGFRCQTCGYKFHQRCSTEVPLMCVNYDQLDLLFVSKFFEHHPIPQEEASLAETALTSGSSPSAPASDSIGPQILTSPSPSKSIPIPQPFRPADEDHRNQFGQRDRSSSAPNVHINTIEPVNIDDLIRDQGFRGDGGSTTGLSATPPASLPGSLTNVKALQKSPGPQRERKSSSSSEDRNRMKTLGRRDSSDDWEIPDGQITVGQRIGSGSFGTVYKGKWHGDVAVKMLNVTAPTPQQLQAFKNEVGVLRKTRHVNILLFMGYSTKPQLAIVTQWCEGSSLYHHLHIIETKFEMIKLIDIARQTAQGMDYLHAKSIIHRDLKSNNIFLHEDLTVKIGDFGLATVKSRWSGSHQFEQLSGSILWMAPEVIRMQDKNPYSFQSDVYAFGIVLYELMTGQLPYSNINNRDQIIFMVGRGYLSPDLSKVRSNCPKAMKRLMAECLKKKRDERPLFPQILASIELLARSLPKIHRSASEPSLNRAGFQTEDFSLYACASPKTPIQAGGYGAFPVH
Procedure: The inhibitory activities of 10a–p on BRAFWT was examined utilizing BRAFWT assay kit (BPS Biosciences—San Diego—CA—US) (For further information see Additional file A).
4. Biochemical kinase assays
The inhibitory activity against different kinases was determined using kinase kits (BRAF WT […]
Glo Max luminescence kinase assay kit (Promega).
The assay was carried out according to the protocol provided by the manufacturer. A stock solution of the synthesized derivatives in 100% DMSO was prepared. Subsequently, the compounds were diluted to 10% DMSO.
A master mixture was prepared according to the number of wells. For BRAF assay each well include 6 μl of 5x Kinase Buffer 1 + 1 μl of ATP (500 μM) + 10 μl of 5X Raf substrate + 8 μl of distilled water. 1x Kinase buffer 1 was prepared by mixing 600 μl of 5x Kinase Buffer 1 with 2400 μl water to give 3 mL. Kinases were thawed on ice and were diluted with 1x Kinase Buffer 1.
To start the biochemical reaction, 25 µL of the master mixture was added to each well in 96 well plate. 5 µL of 10% DMSO was added to positive control wells and blank wells. 5 µL of diluted inhibitor was added to each well labelled with the test inhibitor so that the final concentration of DMSO is 1% in all reactions. Then 20 µL of (2.5 ng/μl) in case of BRAF WT and (1 ng / μl) in case of VEGFR-2 and FGFR-1 in 1x kinase buffer was added to positive control wells and wells labelled with the inhibitor, while 20 µL 1x kinase buffer 1 was added to the blank wells.
The plate was incubated at 30 °C for 45 min. Subsequently, 50 μl of Kinase-Glo Max luminescence reagent was added to each well and the plate was covered with aluminum foil and incubated at room temperature for 15 min. Finally, the luminescence was recorded using multimode microplate reader. Kinase activity assays were performed in duplicate at each concentration.
The luminescence data were analyzed as follows. The difference between luminescence intensities in the absence of kinase (Lu t) and in the presence of kinase (Lu c) was defined as 100 % […]
calculated as: % activity = {(Lu t - Lu)/(Lut - Luc)} ×100%. The concentration of the test compounds required to reduce the kinase activity by 50% was determined from dose-response curves and […]

[2] = test system: HCC-2998; test: NCI 60 single concentration growth inhibition; assay type: cell-based, human; details: HCC-2998, Colon cancer; for inhibition at 10 µM: Homo sapiens, read-out: GI%; for GI%: 10 μM
Procedure: (§1) The synthesized dichlorobenzimidazoles 10a–p were assayed for their influence on divers cancer cell lines according to the method presented in the Additional file A.
(§2) 5. Screening of cytotoxic activity against a panel of sixty human tumor cell lines
(§3) The selected compounds by NCI were evaluated for their anticancer activity in a two-stage process. First, these compounds were screened against the full NCI 60 cell lines panel at a single high dose of 10 µM. Then, the output from the single dose screen is reported as a mean graph. […]
(§4) Assay protocol. The human tumor cell lines of the cancer screening panel are grown in RPMI 1640 medium containing 5% fetal bovine serum and 2 mM L-glutamine. For a typical screening experiment, cells are inoculated into 96 well microtiter plates in 100 µL at plating densities ranging from 5000 to 40,000 cells/well depending on the doubling time of individual cell lines. After cell inoculation, the microtiter plates are incubated at 37 °C, 5% CO 2, 95% air and 100% relative humidity for 24 h prior to addition of the experimental drugs.
(§5) After 24 h, two plates of each cell line are fixed in situ with TCA, to represent a measurement of the cell population for each cell line at the time of drug addition (Tz). The experimental drugs are solubilized in dimethyl sulfoxide at 400-fold the desired final maximum test concentration and stored frozen prior to use. At the time of drug addition, an aliquot of frozen concentrate is thawed and diluted to twice the desired final maximum test concentration with complete medium containing 50 µg/mL gentamicin. Additional four, 10-fold or ½ log serial dilutions are made to provide a total of five drug concentrations plus control.
(§6) Aliquots of […] of these different drug dilutions are added to the appropriate microtiter wells already containing […] of medium, resulting in the required final drug concentrations.
(§7) Following drug addition, the plates are incubated for an additional 48 h at 37 °C, 5% CO 2, 95% air, and 100% relative humidity. For adherent cells, the assay is terminated by the addition of cold TCA.
(§8) Cells are fixed in situ by the gentle addition of 50 µL of cold 50% (w/v) TCA (final concentration, 10% TCA) and incubated for 60 min at 4 °C. The supernatant is discarded, and the plates are washed five times with tap water and air dried. Sulforhodamine B (SRB) solution ([…]) at 0.4% (w/v) in 1% acetic acid is added to each well, and plates are incubated for 10 min at room temperature. After staining, unbound dye is removed by washing five times with 1% acetic acid and the plates are air dried. Bound stain is subsequently solubilized with 10 mM trizma base, and the absorbance is read on an automated plate reader at a wavelength of 515 nm. For suspension cells, the methodology is […]
(§9) the same except that the assay is terminated by fixing settled cells at the bottom of the wells by gently adding 50 µl of 80% TCA (final concentration, 16% TCA). Using the seven absorbance measurements [time zero, (Tz), control growth, (C), and test growth in the presence of drug at the five concentration levels (Ti)], the percentage growth is calculated at each of the drug concentrations […]
(§10) Percentage growth inhibition is calculated as: [(Ti Tz)/(C–Tz)] x 100 for concentrations for which Ti>/=Tz and [(Ti-Tz)/Tz] x 100 for concentrations for which Ti < Tz. […]
(§11) Results for each compound were reported as a mean graph of the percent growth of the treated cells when compared to the untreated control cells. There after obtaining the results for one dose assay, analysis of historical Development Therapeutics Programme (DTP) was performed and compounds which satisfies predetermined threshold inhibition criteria is selected for NCI full panel 5 dose assay.

[3] = test system: SNB-19; test: NCI 60 single concentration growth inhibition; assay type: cell-based, human; details: SNB-19, CNS cancer; for inhibition at 10 µM: Homo sapiens, read-out: GI%; for GI%: 10 μM
Procedure: as §1, §2, §3, §4, §5, §6, §7, §8, §9, §10, §11

[4] = test system: NCI/ADR-RES; test: NCI 60 single concentration growth inhibition; assay type: cell-based, human; details: Ovarian cancer; for inhibition at 10 µM: Homo sapiens, read-out: GI%; for GI%: 10 μM
Procedure: as §1, §2, §3, §4, §5, §6, §7, §8, §9, §10, §11

[5] = test system: NCI-H522; test: NCI 60 single concentration growth inhibition; assay type: cell-based, human; details: NCI-H522, Non-small cell lung cancer; for inhibition at 10 µM: Homo sapiens, read-out: GI%; for GI%: 10 μM
Procedure: as §1, §2, §3, §4, §5, §6, §7, §8, §9, §10, §11

[6] = test system: HT29; test: NCI 60 single concentration growth inhibition; assay type: cell-based, human; details: for inhibition at 10 µM: Homo sapiens, HT-29, HT29, Colon cancer, read-out: GI%; for GI%: HT29, Colon cancer, 10 μM
Procedure: as §1, §2, §3, §4, §5, §6, §7, §8, §9, §10, §11

[7] = test system: DU-145; test: NCI 60 single concentration growth inhibition; assay type: cell-based, human; details: DU-145, Prostate cancer; for inhibition at 10 µM: Homo sapiens, read-out: GI%; for GI%: 10 μM
Procedure: as §1, §2, §3, §4, §5, §6, §7, §8, §9, §10, §11

[8] = test system: OVCAR-3; test: NCI 60 single concentration growth inhibition; assay type: cell-based, human; details: OVCAR-3, Ovarian cancer; for inhibition at 10 µM: Homo sapiens, read-out: GI%; for GI%: 10 μM
Procedure: as §1, §2, §3, §4, §5, §6, §7, §8, §9, §10, §11

[9] = test system: OVCAR-4; test: NCI 60 single concentration growth inhibition; assay type: cell-based, human; details: OVCAR-4, Ovarian cancer; for inhibition at 10 µM: Homo sapiens, read-out: GI%; for GI%: 10 μM
Procedure: as §1, §2, §3, §4, §5, §6, §7, §8, §9, §10, §11

[10] = test system: HOP-92; test: NCI 60 single concentration growth inhibition; assay type: cell-based, human; details: HOP-92, Non-small cell lung cancer; for inhibition at 10 µM: Homo sapiens, read-out: GI%; for GI%: 10 μM
Procedure: as §1, §2, §3, §4, §5, §6, §7, §8, §9, §10, §11

Compound	inhibition at 10 µM [1]	inhibition at 10 µM [2]	inhibition at 10 µM [3]	inhibition at 10 µM [4]	inhibition at 10 µM [5]	inhibition at 10 µM [6]	inhibition at 10 µM [7]	inhibition at 10 µM [8]	inhibition at 10 µM [9]	inhibition at 10 µM [10]	other results
COc1ccc(-c2nc3cc(Cl)c(Cl)cc3n2CC(=O)NN=Cc2cccc(OCC(=O)O)c2)cc1 [Compound 10e, 2-(3-((2-(2-(5,6-Dichloro-2-(4-methoxyphenyl)-1H-benzo[d]imidazol-1-yl)acetyl)hydrazono)methyl)phenoxy)acetic acid]	28.1 ± 2.76%	< 5%	< 5%	< 5%	< 5%	< 5%	< 5%	< 5%	< 5%	< 5%	–
2-(5-((2-(2-(5,6-Dichloro-2-(4-methoxyphenyl)-1H-benzo[d]imidazol-1-yl)acetyl)hydrazono)methyl)-2-methoxyphenoxy)acetic acid [Compound 10n]	–	–	–	–	–	–	–	–	–	–	% inhibition [1]: 90.05 ± 5.16%; GI% [2]: – (GI% < 5%); GI% [3]: – (GI% < 5%); GI% [4]: – (GI% < 5%); GI% [5]: 8.04%; GI% [6]: – (GI% < 5%); GI% [7]: – (GI% < 5%); GI% [8]: – (GI% < 5%); GI% [9]: – (GI% < 5%); GI% [10]: – (GI% < 5%)
3-(4-((2-(2-(5,6-Dichloro-2-(4-methoxyphenyl)-1H-benzo[d]imidazol-1-yl)acetyl)hydrazono)methyl)phenoxy)propanoic acid [Compound 10i]	–	–	–	–	–	–	–	–	–	–	% inhibition [1]: 74.95 ± 5.15%; GI% [2]: – (GI% < 5%); GI% [3]: 5.79%; GI% [4]: – (GI% < 5%); GI% [5]: 10.42%; GI% [6]: – (GI% < 5%); GI% [7]: – (GI% < 5%); GI% [8]: – (GI% < 5%); GI% [9]: – (GI% < 5%); GI% [10]: 6.61%
COc1ccc(-c2nc3cc(Cl)c(Cl)cc3n2CC(=O)NN=Cc2cccc(O)c2)cc1 [Compound 10a, 2-(5,6-Dichloro-2-(4-methoxyphenyl)-1H-benzo[d]imidazol-1-yl)-N'-(3-hydroxybenzylidene)acetohydrazide]	22.5 ± 1%	35.9%	50.4%	44.5%	30%	41.2%	44.2%	36.6%	68.1%	23.8%	–
COC(=O)COc1ccc(C=NNC(=O)Cn2c(-c3ccc(OC)cc3)nc3cc(Cl)c(Cl)cc32)cc1 [Compound 10h, Methyl-2-(4-((2-(2-(5,6-dichloro-2-(4-methoxyphenyl)-1H-benzo[d]imidazol-1-yl)acetyl)hydrazono)methyl)phenoxy)acetate]	91.2 ± 6.5%	142%	8.19%	< 5%	7.31%	93.4%	158%	93%	< 5%	7.02%	IC50 [1]: 1.72 ± 0.09 µM
CCOC(=O)C(C)Oc1ccc(C=NNC(=O)Cn2c(-c3ccc(OC)cc3)nc3cc(Cl)c(Cl)cc32)cc1 (stereo not drawn) [Compound 10j, Ethyl-2-(4-((2-(2-(5,6-dichloro-2-(4-methoxyphenyl)-1H-benzo[d]imidazol-1-yl)acetyl) hydrazono)methyl)phenoxy)propanoate]	70.2 ± 6.16%	15.4%	11.2%	< 5%	32.6%	39.2%	85.2%	< 5%	9.77%	15.2%	–
COc1ccc(-c2nc3cc(Cl)c(Cl)cc3n2CC(=O)NN=Cc2ccc(OCC(=O)O)cc2)cc1 [Compound 10f, 2-(4-((2-(2-(5,6-Dichloro-2-(4-methoxyphenyl)-1H-benzo[d]imidazol-1-yl)acetyl)hydrazono)methyl)phenoxy)acetic acid]	53.15 ± 0.36%	< 5%	< 5%	< 5%	< 5%	< 5%	< 5%	< 5%	< 5%	< 5%	–
COc1ccc(-c2nc3cc(Cl)c(Cl)cc3n2CC(=O)NN=Cc2ccc(O)cc2)cc1 [Compound 10b, 2-(5,6-Dichloro-2-(4-methoxyphenyl)-1H-benzo[d]imidazol-1-yl)-N'-(4-hydroxybenzylidene)acetohydrazide]	21.9 ± 1.62%	21.4%	39%	28.5%	21.8%	25.1%	30.8%	27%	52.8%	40%	–
